In BindingDB's records for PubMed 38746901 (Smith, Gambrell & Russell):

assay: Inhibition of human recombinant GST tagged NIK incubated for 2 hrs in presence of ATP by alpha screen assay

Structure (SMILES)	IC50 [nM]
CN1CC[C@@](O)(c2cn(-c3cccc(-c4ccnc(Nc5ccn(C)n5)n4)n3)nn2)C1=O	< 50
CN1CC[C@@](O)(c2cc(-c3cccc(-c4ccnc(Nc5cnn(C)c5C5CC5)n4)n3)no2)C1=O	< 50
CN1CC(F)(F)[C@@](O)(c2cc(-c3cccc(-c4ccnc(Nc5cnn(C)c5)n4)n3)no2)C1=O	< 50
CN1CC[C@@](O)(c2nnc(-c3cccc(-c4ccnc(Nc5cnn(C)c5Cl)n4)n3)s2)C1=O	< 50
Cc1nocc1Nc1nccc(-c2cccc(-c3cc([C@]4(O)CCN(C)C4=O)on3)n2)n1	< 50
Cc1nscc1Nc1nccc(-c2cccc(-c3cc([C@]4(O)CCN(C)C4=O)on3)n2)n1	< 50
